Columns and labels:
[1] = Activation of IRF-mediated immune response in human THP1-Dual KO-STING cells co-expressing ISRE reporter assessed as normalized luciferase gene expression by measuring relative luciferase units at 50 uM incubated for 24 hrs by QUANTI Luc based microplate reader method; format: functional
THP1-Dual = assay: Cytotoxicity against human wild type THP1-Dual cells assessed as residual cell viability by CellTiter96 Aqueous One Solution Cell Proliferation Assay; format: functional; parameters: concentration or dose not given beside the values
[2] = Cytotoxicity against human THP1-Dual KO-STING cells assessed as residual cell viability by CellTiter96 Aqueous One Solution Cell Proliferation Assay; format: functional; parameters: concentration or dose not given beside the values
[3] = target: Stimulator of interferon genes protein (Homo sapiens, UniProt Q86WV6); details: THP1-Dual, filed as activator, dose 50.0 µM, time 24.0 hrs
Sequence of Stimulator of interferon genes protein (Q86WV6 whole entry): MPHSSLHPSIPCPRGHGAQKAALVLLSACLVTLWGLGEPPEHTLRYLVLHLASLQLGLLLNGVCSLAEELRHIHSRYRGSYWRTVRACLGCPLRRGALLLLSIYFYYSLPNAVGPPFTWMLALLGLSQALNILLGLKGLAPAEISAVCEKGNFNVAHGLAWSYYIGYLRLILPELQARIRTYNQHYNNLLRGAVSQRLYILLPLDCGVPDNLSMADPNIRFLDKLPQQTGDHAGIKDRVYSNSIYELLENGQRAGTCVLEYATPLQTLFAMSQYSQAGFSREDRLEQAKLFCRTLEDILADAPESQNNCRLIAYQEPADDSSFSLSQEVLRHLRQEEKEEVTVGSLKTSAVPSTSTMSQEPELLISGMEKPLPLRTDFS

Row | RLU [3] | SMILES | RLU [1] | Activity (THP1-Dual) [%] | Activity [2] [%]
1 | 1 | CCn1nc(C)cc1C(=O)Nc1nc2cc(C(N)=O)ccc2n1CCCCNC(=O)c1cccnc1 | 1.1 | 98.9 | 96.4
2 | 99.1 | CCn1nc(C)cc1C(=O)NCCCOc1cc(C(N)=O)cc2nc(NC(=O)c3cc(C)nn3CC)n(C)c12 | 0.9 | 94 | 113
3 | 2.7 | CCn1nc(C)cc1C(=O)Nc1nc2cc(C(N)=O)cc(OC)c2n1CCCCNC(=O)OC(C)(C)C | 0.5 | 72.1 | 90
4 | 4.8 | CCn1nc(C)cc1C(=O)Nc1nc2cc(C(N)=O)ccc2n1CCCCNC(=O)C(C)(C)C | 0.4 | 103.7 | 58.6
5 | 0.8 | CCn1nc(C)cc1C(=O)Nc1nc2cc(C(=O)OC)ccc2n1CCCCn1c(NC(=O)c2cc(C)nn2CC)nc2cc(C(=O)OC)ccc21 | 0.8 | 122 | 117.9
6 | 93.3 | CCn1nc(C)cc1C(=O)Nc1nc2cc(C(N)=O)ccc2n1CCCCNC(=O)c1cc(C)nn1C | 0.9 | 66 | 105.4
7 | 0.6 | CCn1nc(C)cc1C(=O)Nc1nc2cc(C(=O)O)ccc2n1CCCCn1c(NC(=O)c2cc(C)nn2CC)nc2cc(C(=O)O)ccc21 | 0.6 | 113.1 | 101.6
8 | 101 | CCn1nc(C)cc1C(=O)Nc1nc2cc(C(N)=O)cc(OC)c2n1C/C=C/Cn1c(NC(=O)c2cc(C)nn2CC)nc2cc(C(N)=O)cc(OCCCN)c21 | 0.7 |  | 

More lines, now with the values behind:

Row | SMILES | RLU [3] | RLU [1] | Activity (THP1-Dual) [%] | Activity [2] [%]
9 | Nc1nc2c(ncn2[C@@H]2O[C@@H]3COP(=O)(O)O[C@H]4[C@@H](O)[C@H](n5cnc6c(N)ncnc65)O[C@@H]4COP(=O)(O)O[C@@H]2[C@@H]3O)c(=O)[nH]1 |  |  | 76.5 | 
10 | Cc1cc(C(=O)Nc2nc3cc(C(N)=O)ccc3n2CCCCNC(=O)OC(C)(C)C)n(C(C)(C)C)n1 | 1.1 | 1.2 | 83.5 | 82.7
11 | NC(=O)c1ccc2c(c1)nc(NC(=O)c1cc3ccccc3o1)n2CCCCn1c(NC(=O)c2cc3ccccc3o2)nc2cc(C(N)=O)ccc21 | 0.9 | 1.3 | 103 | 96.8
12 | CCn1nc(C(F)(F)F)cc1C(=O)Nc1nc2cc(C(N)=O)ccc2n1CCCCNC(=O)OC(C)(C)C | 0.8 | 1.1 | 99.4 | 89.9
13 | Cn1cc(C(=O)Nc2nc3cc(C(N)=O)ccc3n2C[C@@H](O)c2ccccc2)c(C(F)(F)F)n1 | 0.8 | 1.1 | 89.4 | 92.4
14 | CCn1nc(C(F)(F)F)cc1C(=O)Nc1nc2cc(C(N)=O)ccc2n1C[C@@H](O)c1ccccc1 | 0.7 | 1 | 88.1 | 91
15 | C=CCn1nc(C(=O)Nc2nc3cc(C(N)=O)ccc3n2CCCCNC(=O)OC(C)(C)C)cc1C | 0.9 | 1.4 | 96.1 | 103.9
16 | Cn1cc(C(=O)Nc2nc3cc(C(N)=O)ccc3n2CCCCNC(=O)OC(C)(C)C)c(C(F)(F)F)n1 | 0.8 | 0.9 | 91.9 | 90.6
17 | NC(=O)c1ccc2c(c1)nc(NC(=O)c1nn(C3CCCCO3)c3ccccc13)n2C[C@@H](O)c1ccccc1 (stereo partly specified) | 0.4 | 0.9 | 95.8 | 93.4
18 | NC(=O)c1ccc2c(c1)nc(NC(=O)c1n[nH]c3ccccc13)n2C[C@@H](O)c1ccccc1 | 0.9 | 1.3 | 91.2 | 100.9
19 | NC(=O)c1ccc2c(c1)nc(NC(=O)c1cc3ccccc3o1)n2C[C@@H](O)c1ccccc1 | 0.8 | 0.8 | 90.2 | 105.5
